According to paper PMC4394992 (Journal of controlled release : official journal of the …, 2015):

Tests used:
[1] = system: 4T1 murine breast cancer cells; assay: Cell proliferation MTS assay; type: cell-based; conditions: Mus musculus, 96 h
4T1 cells = assay: Cell clonogenic assay, drug alone; type: cell-based, murine; conditions: 4T1, 3 µM
Miapaca-2 cells = assay: Cell clonogenic assay, drug alone; type: cell-based, human; conditions: Miapaca-2, 3 µM

CC1=C2C[C@H]3[C@@H](CC=C4C[C@@H](O)CC[C@@]43C)[C@@H]2CC[C@]12O[C@@H]1C[C@H](C)CN[C@H]1[C@H]2C [free CPA, cyclopamine]
IC50 [1]: 11.3 ± 1.2 µM
Reduction of colony numbers (4T1 cells): 6.7% ± 6.1
Reduction of colony numbers (Miapaca-2 cells): 17.7% ± 4.3
